Measured values reported in patent publication US12378521B2, “Method for enhancing production of genetically engineered autologous T cells” (AMGEN INC., priority 2020, dated 2025).

Experiments:
[1] = system: T2 cells; assay: Potency assay: cytotoxicity against peptide-pulsed T2 cells expressing Luciferase; format: cell-based; settings: peptide 1 μM, E:T 1:1, 48 hours
Experimental: (§1) T2 cells expressing Luciferase were pulsed with the peptide recognized by the engineered TCR or with DMSO for 4 hours and the cells were washed before setting up a co-culture assay with 20,000 total T cells at a 1:1 (E:T) ratio. (A) 48 hours later, the luciferase signal was measured using the Steady Glo® Luciferase Assay System (Promega). Specific cytotoxicity was measured relative to the no peptide T2 cells cultured with the TCR T cells. (B) IFN-γ expression was measured using the AlphaLISA® detection kit (Perkin Elmer Waltham, MA) after 24 hours of co-culture. […] In addition, 24 hour accumulated release of IFN-γ was higher for T cells in non-2-DG media cross all concentration of peptide tested. […] Culture media containing 2-DG was used throughout the entire process (10 days).

[2] = system: T cells; assay: Leukocyte subsets in harvested T cells by immunophenotyping; format: cell-based, human; settings: at harvest, both conditions
Experimental: Analysis of human B cells (CD19), monocytes (CD14), NK cells (CD56/16), NKT cells (CD3+CD56+), and T cells (CD3+Cd56−) were performed by immunophenotyping.

[3] = system: T2 cells; assay: IFN-γ expression after co-culture with T2 cells (AlphaLISA); format: cell-based; settings: 24 hours co-culture, all peptide concentrations tested
Experimental: as §1

[4] = system: T cells; assay: T cell differentiation phenotyping (Tscm, Tcm, Tem) with 2-DG; format: cell-based, human
Experimental: Tscm, Tcm, Tem, and Tte subsets were analyzed by immunophenotyping based on their expression of CD45RA, CD45RO, CD95, and CCR7.
2-DG was added to culture medium between Days 0 and 7 and the feed medi was replaced with non-2-DG media (Media 1) from Days 7-14. […] The T cells continued differentiation after 2-DG was perfused out from culture media and ended at a similar level of differentiation as T cells in non-2-DG media (Media 1).
as §1

[5] = system: T cells; assay: Transgene expression of cells expanded in media with 2-DG; format: cell-based, human
Experimental: On Day 1, the nucleated cells in each bag were counted and the amount of a lentiviral vector (comprising a polynucleotide encoding a TCR) corresponding to a MOI of 1 functional titer was diluted in 10 ml of Media 1 or Media 2 and placed in transfer bags. The transfer bags were sterile welded on XURI® Cellbag feed-lines and the lentivirus was then transferred into each of the bioreactors via gravity flow. The cells were incubated at 37° C., 5% CO2, gas flow rate of 0.1 L/min, and a rocking rate of 2 rpm at a 2° angle, for 20-24 hours.
In contrast, transgene expression of T cell in non-2-DG media decreased to 44.4% at high cell density ([…]).

[6] = system: apheresed donor cells; assay: Growth and viability of cells expanded in media supplemented with 2-DG; format: cell-based, human
Experimental: A portion of the washed apheresed donor cells comprising 1.2E9 nucleated cells were transferred into two transfer bags under the Dilute program using Sepax C-Pro processing system with the same CS-600.1 Kit (a new kit was not used). Into one bag was added about 8 ml of Media 1 (OpTmizer™ complete media containing 300 IU/mL rhIL-2 (ThermoFisher) and 2 mM 2-Deoxy-D-glucose (2-DG) (MilliporeSigma, Burlington, MA)). Into the second bag was added about 8 ml of Media 2 (OpTmizer™ complete media containing 300 IU/mL rhIL-2 (ThermoFisher)). To each was added 7.5 ml Immunocult™ anti-CD3/CD28/[…] (25 μl/ml media with cells, Stemcell Technologies). The amount of activator was determined based on the culture volume of 300 ml that was used in the culture/activation step below. The bags were incubated for 1 hour at room temperature to allow for saturation of antibody binding.
A 2 L XURI® SP Perf Cellbag bioreactor (GE Healthcare) was connected to a XURI® Cell Expansion System W25 and 300 ml Media 1 was added and allowed to equilibrate at 37° C., 5% CO2, gas flow rate of 0.1 L/min, and a rocking rate of 6 rpm at a 6° angle. […]
On Day 1, the nucleated cells in each bag were counted and the amount of a lentiviral vector (comprising a polynucleotide encoding a TCR) corresponding to a MOI of 1 functional titer was diluted in 10 ml of Media 1 or Media 2 and placed in transfer bags. […]
On Day 2, about half the volume of the culture media in each bioreactor bag was exchanged using three 50 ml bag washouts through feed-line and waste-line. Cell counts were taken daily and viable cell density (VCD), viability, dissolved oxygen, metabolites were determined as described above. Cell phenotypes were determined for all samples tested. […]
Total viable cell density, viability, glucose and lactate measurements were taken each day. Phenotyping was determined on Days 3, 5 and 7. […]
Total viable cell density, viability, glucose and lactate measurements were taken each day. Phenotyping was determined on Days 9 and 14.

[7] = system: glycolysis; assay: Glucose and lactate concentrations in culture (Cedex Bio Analyzer); format: cell-based, human
Experimental: Glucose and lactate were measured using Cedex Bio Analyzer (Roche, Indianapolis, IN). […] In addition, the effect of 2-DG was reversible as restoration of glucose (A) and lactate (B) levels was found after removal of 2-DG from the media from Day 7 to 14.

[8] = system: T cells; assay: CD25 expression by cells expanded in media with 2-DG; format: cell-based, human
From the text: Even through CD25 expression by T cells in both conditions saturated at ±80%. T cells in 2-DG media retained CD25 better at Days[…] and 9 than the cells in the non-2-DG media. This may be due to the higher transgene expression and T cell yield for T cells generated in the 2-DG media.

O=CC[C@@H](O)[C@H](O)[C@H](O)CO [2-DG, 2-deoxy-D-glucose]
T2 cell lysis versus T cells from non-2-DG media [1]: No significant difference
CD3+ cell purity [2]: above 98%
24 hour accumulated release of IFN-γ versus non-2-DG media [3]: lower level of IFN-γ
collected Tscm and Tcm subsets ([4]; 2-DG throughout entire process (10 days), non-2-DG media 43%): 59%
Tscm subset ([4]; Day 5, non-2-DG media 14%): 26%
combined Tcm and Tscm ([4]; Day 7, non-2-DG media 56%): 86%
Transgene expression by T cells ([5]; 2-DG media, non-2-DG media 54%): 56%
Transgene expression at high cell density ([5]; cell density 35 billion cells/ml, non-2-DG media 44.4% at 25 billion cells/ml): 50.4%
T cells yielded ([6]; 2 mM 2-DG media, 14 days, without 2-DG 25 billion): 35 billion T cells
Viability compared with non-2-DG media ([6]; Day 4 to Day 10): slightly higher viability
Overall viability ([6]; both media conditions): above 70%
Glucose concentration in spent media compared to non-2-DG condition ([7]; 2-DG media (Media 1)): higher glucose concentration
Lactate concentration in spent media compared to non-2-DG condition ([7]; 2-DG media (Media 1)): higher lactate concentration
Effect on glucose and lactate levels after removal of 2-DG ([7]; 2-DG removed from media Day 7 to 14): reversible
CD25 expression in response to activation ([8]; 2-DG media, non-2-DG media 46%): 32%
CD25 expression at saturation ([8]; both conditions): ~80%
